# According to patent US20120129842A1, “BISTHIAZOLE INHIBITORS OF PRO-MATRIX METALLOPROTEINASE ACTIVATION” (priority 2010, published 2012):
# Experiments:
# [1] = molecular target: T1, proMMP9(67-444;ΔFnII) (SEQ ID NO:5) (Homo sapiens, UniProt P14780, DEL216-390); assay: ThermoFluor binding assay with proMMP9(67-444;ΔFnII); conditions: pH 7.0
# T1 construct: start methionine (N); made in house; host or cells: E. coli BL21(DE3) RIL
# T1 sequence (P14780 with tags, fused parts or gaps DEL216-390): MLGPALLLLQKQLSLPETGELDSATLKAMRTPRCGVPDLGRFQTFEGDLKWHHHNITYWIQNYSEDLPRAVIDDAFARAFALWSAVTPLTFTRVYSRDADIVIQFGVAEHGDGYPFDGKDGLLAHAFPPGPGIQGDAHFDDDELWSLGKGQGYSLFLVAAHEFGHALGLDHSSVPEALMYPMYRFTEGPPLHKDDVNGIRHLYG
# How it was run: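 Thermal shift binding with 3.5 μM proMMP9(67-444;ΔFnII) and 50 μM 1,8-ANS in 50 mM HEPES pH 7.0, 100 mM NaCl, 2.5 mM MgCl2, 300 μM CaCl2, 0.001% Tween-20, with serially diluted compound. Heated 40 to 90° C at 1° C/min; fluorescence-derived Tm fitted using DSC/ThermoFluor thermodynamic parameters.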
# proMMP9 = molecular target: T2, proMMP9 (Homo sapiens, UniProt P14780); assay: Activation of proMMP9 by human fetal lung fibroblast (HFL-1) cultures (Western blot); assay type: cell-based
# T2 construct: host or cells: HFL-1 human fetal lung fibroblasts, TNFα plus human neutrophil elastase
# Experimental: Activation of proMMP9 by Human Fetal Lung Fibroblast Cultures Example 64 was assessed additionally for ability to block the maturation of proMMP9 to active MMP9 in cultures of human fetal lung fibroblasts (HFL-1, American Type Culture Collection #CCL-153). Unlike rat synoviocytes, HFL-1 cells were unable to process proMMP9 to the active form without addition of neutrophil elastase. […] Rather, the function of elastase in this assay may be to inactivate tissue inhibitors of matrix metalloproteinases (TIMPs) that repress endogenous pathways of MMP9 activation (Am J Respir Grit Care Med; 1999; 159:1138-46).
# HLF-1 were maintained in monolayer culture in DMEM with 10% FCS and were used between passage numbers 5-15. HLF-1 were embedded in collagen gels as described for rat SCW synoviocytes (vida supra). Half mL gels containing 0.4 million cells were dislodged into wells of 12 well Costar plates containing 1 mL/well of DMEM adjusted to contain 0.05% BSA and 100 ng/mL human TNFα (R&D Systems Cat #210-TA/CF). After overnight culture (37° C. and 5% CO2) wells were adjusted to contain an additional 0.5 mL of DMEM containing 0.05% BSA and with or without 13.2 μM Example 64 (final concentration was 3.3 μM Example 64). Next, cultures were adjusted to contain 30 nM human elastase (Innovative Research). The plates were cultured an additional 72 hrs, at which time MMP9 secreted into the conditioned media was bound to gelatin-sepharose and evaluated by Western blot analysis as described for the rat synoviocyte cultures (vida supra). mAb-51/82 detected three forms of MMP9 in HFL-1 cultures.
# A second experiment was performed to determine if the 80 kD form was mature active MMP9 and to determine the potency of Example 64 as an inhibitor of MMP9 maturation in this assay. HFL-1 cells embedded in collagen gels were cultured as described above in the presence of TNFα overnight and the cultures were then adjusted to contain 30 nM elastase and graded concentrations of Example 64 for an additional 72 hrs at which time MMP9 secreted into the conditioned media was bound to gelatin-sepharose and evaluated by Western blot analysis for active MMP9 using pAb-1246 raised against the N-terminal neoepitope of active MMP9 (Table 5). In the absence of Example 64, pAb-1246 readily detected MMP9 with an electrophoretic mobility of approximately 80 kD. […] Inhibition occurred over a dose range with an IC50 of approximately 0.3 μM Example 64.
# T2 sequence (P14780 20-707 limits assumed): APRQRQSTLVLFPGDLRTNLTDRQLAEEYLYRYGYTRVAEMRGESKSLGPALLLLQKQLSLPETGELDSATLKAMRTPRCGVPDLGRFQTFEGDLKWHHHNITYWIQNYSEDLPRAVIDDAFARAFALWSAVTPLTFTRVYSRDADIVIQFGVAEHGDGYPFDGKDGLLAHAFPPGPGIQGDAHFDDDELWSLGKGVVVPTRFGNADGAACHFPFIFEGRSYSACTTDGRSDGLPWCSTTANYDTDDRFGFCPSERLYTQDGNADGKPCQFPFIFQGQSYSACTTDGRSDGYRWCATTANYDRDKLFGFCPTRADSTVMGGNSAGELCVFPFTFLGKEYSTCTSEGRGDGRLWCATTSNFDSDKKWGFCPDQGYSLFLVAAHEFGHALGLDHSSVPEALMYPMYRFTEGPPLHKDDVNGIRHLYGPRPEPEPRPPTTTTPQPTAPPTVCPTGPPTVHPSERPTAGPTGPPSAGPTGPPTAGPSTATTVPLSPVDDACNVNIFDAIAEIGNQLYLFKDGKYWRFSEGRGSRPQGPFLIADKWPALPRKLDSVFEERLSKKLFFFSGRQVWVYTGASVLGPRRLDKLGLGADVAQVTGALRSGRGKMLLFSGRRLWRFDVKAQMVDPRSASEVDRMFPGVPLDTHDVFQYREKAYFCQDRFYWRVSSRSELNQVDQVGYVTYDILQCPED
compound,measurement,setting,value
"Cc1nc(C)c(-c2csc(Nc3cc(S(N)(=O)=O)ccc3OC(C)C)n2)s1 [Example 64, 3-(2′,4′-Dimethyl-[4,5′]bithiazolyl-2-ylamino)-4-isopropoxy-benzenesulfonamide.HBr]",Kd,[1],260 nM
same,Signal (INT*mm^2) Total,"proMMP9; 3.3 μM, HFL-1, mAb-L51/82, 30 nM elastase, 72 hrs",91346 INT*mm^2
same,inhibition at 0.12 µM,"proMMP9; HFL1, 0.12 μM, HFL-1, 80 kD band, pAb-1246",0%
same,inhibition at 0.37 µM,"proMMP9; HFL1, 0.37 μM, HFL-1, 80 kD band, pAb-1246",73%
same,inhibition at 1.1 µM,"proMMP9; HFL1, 1.1 μM, HFL-1, 80 kD band, pAb-1246",99%
same,inhibition at 3.3 µM,"proMMP9; HFL1, 3.3 μM, HFL-1, 80 kD band, pAb-1246",100%
same,inhibition at 10 µM,"proMMP9; HFL1, 10 μM, HFL-1, 80 kD band, pAb-1246",100%
